In patent US20180002288A1, “USE OF PICOLINAMIDES AS FUNGICIDES” (DOW AGROSCIENCES LLC, priority 2014, published 2018):
Where two headings read alike, the source gives them in different places.

Assays:
[1] = tested on: Phakopsora pachyrhizi; experiment: Asian Soybean Rust fungicidal activity (PHAKPA); conditions: Phakopsora pachyrhizi, in Glycine max
[2] = tested on: Puccinia triticina; experiment: Wheat Brown Rust fungicidal activity (PUCCRT); assay type: in vivo; conditions: Low Volume Cereal Activity at 121.5 g/Ha
[3] = tested on: Zymoseptoria tritici; experiment: Leaf Blotch of Wheat fungicidal activity (SEPTTR); assay type: in vivo; conditions: Low Volume Cereal Activity at 121.5 g/Ha
[4] = 24 h, read-out: PHAKPA 1DP % Control rating, soybean, high volume, 25 ppm, 1 Day Protectant
[5] = 72 h, read-out: PHAKPA 3DC % Control rating, soybean, high volume, 25 ppm, 3 Day Curative
[6] = 24 h, 1 Day Protectant, read-out: PUCCRT 1DP (Wheat Brown Rust, 1 Day Protectant)
[7] = 72 h, 3 Day Curative, read-out: PUCCRT 3DC (Wheat Brown Rust, 3 Day Curative)
[8] = 24 h, 1 Day Protectant, read-out: SEPTTR 1DP (Wheat Leaf Blotch, 1 Day Protectant)
[9] = 72 h, 3 Day Curative, read-out: SEPTTR 3DC (Wheat Leaf Blotch, 3 Day Curative)

SMILES	pest or weed control at 25 ppm [1, 4]	pest or weed control at 25 ppm [1, 5]	pest or weed control at 121.5 g/ha [2, 6]	pest or weed control at 121.5 g/ha [2, 7]	pest or weed control at 121.5 g/ha [3, 8]	pest or weed control at 121.5 g/ha [3, 9]
COc1ccnc(C(=O)N[C@@H](C)C(=O)O[C@@H](C)[C@H](Oc2ccccc2)c2ccc(F)cc2OCC(F)F)c1OC(C)=O [Example 273]	< 80%	< 0%	> 80%	> 80%	> 80%	> 80%
CCOc1cc(F)ccc1[C@@H](Oc1ccccc1)[C@H](C)OC(=O)[C@H](C)NC(=O)c1nccc(OC)c1OC(C)=O [Example 265]	< 80%	< 0%	> 80%	> 80%	> 80%	> 80%
COc1ccnc(C(=O)N[C@@H](C)C(=O)O[C@@H](C)[C@H](Oc2ccccc2)c2ccc(F)cc2)c1OC(C)=O [Example 242]	> 80%	< 80%	> 80%	> 80%	> 80%	> 80%
COc1cc(F)ccc1[C@@H](Oc1ccc(C)cc1Cl)[C@H](C)OC(=O)[C@H](C)NC(=O)c1nccc(OC)c1OC(C)=O [Example 266]	< 80%	< 0%	> 80%	< 80%	> 80%	> 80%
COc1cc(C)ccc1[C@@H](Oc1ccc(C)cc1)[C@H](C)OC(=O)[C@H](C)NC(=O)c1nccc(OC)c1OC(C)=O [Example 274]	< 80%	< 0%	> 80%	< 80%	> 80%	> 80%
COc1ccnc(C(=O)N[C@@H](C)C(=O)O[C@@H](C)[C@H](Oc2ccccc2)c2ccc(F)cc2Oc2ccccc2)c1OC(C)=O [Example 275]	< 80%	< 0%	> 80%	> 80%	> 80%	< 80%
COc1cc(F)ccc1[C@@H](OC1CC1)[C@H](C)OC(=O)[C@H](C)NC(=O)c1nccc(OC)c1OC(C)=O [Example 299]	> 80%	< 80%	> 80%	< 80%	> 80%	> 80%
COc1cc(F)ccc1[C@@H](OCC1CC1)[C@H](C)OC(=O)[C@H](C)NC(=O)c1nccc(OC)c1OC(C)=O [Example 295]	> 80%	< 80%	> 80%	< 80%	> 80%	> 80%
COc1ccnc(C(=O)N[C@@H](C)C(=O)O[C@@H](C)[C@H](OCC2CC2)c2cccc(-c3ccccc3)c2)c1OCOC(C)=O [Example 220]	> 80%	< 80%	> 80%	> 80%	< 80%	> 80%
COc1cc(F)ccc1[C@H](OC1CC1)[C@H](C)OC(=O)[C@H](C)NC(=O)c1nccc(OC)c1OC(C)=O [Example 298]	> 80%	< 80%	< 80%	> 80%	< 80%	< 0%
COc1ccnc(C(=O)N[C@@H](C)C(=O)O[C@@H](C)[C@H](Oc2ccccc2Cl)c2ccccc2)c1OCOC(C)=O [Example 204]	> 80%	< 80%	> 80%	> 80%	< 80%	> 80%
COc1ccnc(C(=O)N[C@@H](C)C(=O)O[C@@H](C)[C@H](OCC2CC2)c2ccccc2)c1OC(C)=O [Example 233]	> 80%	< 80%	> 80%	> 80%	> 80%	> 80%
